In patent US10206394B2, “Herbicidal compounds” (Syngenta Participations AG, priority 2014, dated 2019):
Read-outs that look alike come from different tables or passages of the source.

What was measured:
Experiment in all cases: Glasshouse assay for herbicidal activity (pre- and post-emergence), percentage phytotoxicity
Format in all cases: in vivo
[1] = system: Alopecurus myosuroides (ALOMY); conditions: Alopecurus myosuroides, 250 g/ha, visual assessment (100%=total damage, 0%=no damage)
In short: (§1)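 Percent injury was estimated by eye on a scale where 0% means no damage and 100% complete damage. Ratings came 15 DAA post-emergence and 20 DAA pre-emergence, with plants held under 16 h light and 65% humidity at 24/18 °C or 20/16 °C day/night.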

Lolium perenne (LOLPE) = conditions: Lolium perenne, 250 g/ha, visual assessment (100%=total damage, 0%=no damage)
In short: as §1

[2] = system: Echinochloa crus-galli (ECHCG); conditions: Echinochloa crus-galli, 250 g/ha, visual assessment (100%=total damage, 0%=no damage)
In short: as §1

Avena fatua (AVEFA) = conditions: Avena fatua, 250 g/ha, visual assessment (100%=total damage, 0%=no damage)
In short: as §1

[3] = post-emergence, 360 h, post-emergence, 15 DAA, read-out: Post-emergence herbicidal activity (percentage phytotoxicity) ALOMY POST
[4] = pre-emergence, 480 h, pre-emergence, 20 DAA, read-out: Pre-emergence herbicidal activity (percentage phytotoxicity) ALOMY PRE
[5] = post-emergence, 360 h, post-emergence, 15 DAA, read-out: Post-emergence herbicidal activity (percentage phytotoxicity) LOLPE POST
[6] = pre-emergence, 480 h, pre-emergence, 20 DAA, read-out: Pre-emergence herbicidal activity (percentage phytotoxicity) LOLPE PRE
[7] = post-emergence, 360 h, post-emergence, 15 DAA, read-out: Post-emergence herbicidal activity (percentage phytotoxicity) ECHCG POST
[8] = pre-emergence, 480 h, pre-emergence, 20 DAA, read-out: Pre-emergence herbicidal activity (percentage phytotoxicity) ECHCG PRE
[9] = post-emergence, 360 h, post-emergence, 15 DAA, read-out: Post-emergence herbicidal activity (percentage phytotoxicity) AVEFA POST
[10] = pre-emergence, 480 h, pre-emergence, 20 DAA, read-out: Pre-emergence herbicidal activity (percentage phytotoxicity) AVEFA PRE

SMILES | pest or weed control at 250 g/ha [1, 3] | pest or weed control at 250 g/ha [1, 4] | pest or weed control at 250 g/ha (Lolium perenne (LOLPE); [5]) | pest or weed control at 250 g/ha (Lolium perenne (LOLPE); [6]) | pest or weed control at 250 g/ha [2, 7] | pest or weed control at 250 g/ha [2, 8] | pest or weed control at 250 g/ha (Avena fatua (AVEFA); [9]) | pest or weed control at 250 g/ha (Avena fatua (AVEFA); [10])
C#CC(C)(C)NC(=O)CC1CC(=O)C(c2c(C)cc(-c3ncc(Cl)cc3F)cc2C)C1=O (stereo not drawn) [Compound B126] | 100% | 100% | 100% | 100% | 100% | 100% | 100% | 90%
C#CC(C)(C)NC(=O)CC1CC(=O)C(c2c(C)cc(Br)cc2C)C1=O (stereo not drawn) [Compound B127] | 90% | 90% | 90% | 70% | 100% | 70% | 100% | 80%
COCCCNC(=O)CC1CC(=O)C(c2c(C)cc(-c3ncc(Cl)cc3F)cc2C)C1=O (stereo not drawn) [Compound B128] | 100% | 100% | 100% | 100% | 100% | 100% | 100% | 100%
Cc1cc(-c2ncc(Cl)cc2F)cc(C)c1C1C(=O)CC(CC(=O)NCc2cccc(F)c2)C1=O (stereo not drawn) [Compound B129] | 100% | 90% | 100% | 90% | 100% | 70% | 100% | 50%
Cc1cc(Br)cc(C)c1C1C(=O)CC(CC(=O)NCc2cccc(F)c2)C1=O (stereo not drawn) [Compound B130] | 90% | 80% | 100% | 80% | 90% | 70% | 90% | 40%
COc1cccc(CNC(=O)CC2CC(=O)C(c3c(C)cc(-c4ncc(Cl)cc4F)cc3C)C2=O)c1 (stereo not drawn) [Compound B131] | 90% | 80% | 90% | 80% | 100% | 90% | 100% | 30%
COc1cccc(CNC(=O)CC2CC(=O)C(c3c(C)cc(Br)cc3C)C2=O)c1 (stereo not drawn) [Compound B132] | 60% | 80% | 70% | 80% | 80% | 20% | 20% | 30%
C=C(Cl)CNC(=O)CC1CC(=O)C(c2c(C)cc(C)cc2C)C1=O (stereo not drawn) [Compound B133] | 50% | 80% | 90% | 100% | 50% | 80% | 60% | 0%
COCC(C)NC(=O)CC1CC(=O)C(c2c(C)cc(Br)cc2C)C1=O (stereo not drawn) [Compound B134] | 90% | 90% | 80% | 80% | 80% | 70% | 90% | 70%
